From US20250041277A1, “METHODS AND DOSING REGIMENS COMPRISING A CDK2 INHIBITOR AND A CDK4 INHIBITOR FOR TREATING CANCER” (PFIZER INC., priority 2021, published 2025)

What was measured:
HCC2935 = experiment: Combinatorial activity in LUAD cell line HCC2935; type: cell-based; conditions: Homo sapiens; HCC2935, WT; single agent; read-out: (nM) s.a.
Method: (§1) Combinatorial activity of PF-07104091 and PF-07220060 was assessed in LUADs as single agents (s.a.) or in combination.

NCI-2291 = experiment: Combinatorial activity in LUAD cell line NCI-2291; type: cell-based; conditions: NCI-2291, KRAS G12C/F/V; single agent; read-out: (nM) s.a.
Method: as §1

T47D breast cancer model = experiment: In vivo efficacy, HR+/HER2− T47D breast cancer model (Example 3); set-up: species or system NSG mice; conditions: Day 41, PO BID: PF-07104091 150 mpk, PF-07220060 60 mpk, palbociclib 10 mpk
Method: Female NSG mice (Jackson Lab) were subcutaneously implanted with fragment (27 mm^3 to 64 mm^3 size) into the dorsal region. All mice for T47D, HCC1428 and ST941 PBR studies were supplemented with 8.5 μg/mL estradiol water (β-Estradiol Sigma-Aldrich, cat #E2758-5G) and gave ad libitum till end of study. For the in vivo efficacy studies, tumor volume and body weights were measured twice a week. Tumor volume was calculated using the [(Length×Width×Width)/2)] formula. TGI was calculated as 100*(1−ΔT/ΔC). The ΔC (ΔT) was obtained by subtracting the mean tumor burden in the vehicle (treated) group on the first day of treatment (Day 0) from the mean tumor burden in vehicle (treated) group on the assessment day. Statistical analysis was performed using ANCOVA when the mean tumor volume in vehicle treated mice reached tumor cutoff size.
The T47D model was established by implanting passage 3 tumor fragments into recipient mice. To establish the T47D donor mice, tumor cells (5×10^6 cell/mouse with 50% Cultrex® Basement Membrane Matrix) were subcutaneously implanted in female NSG mice. Once reaching a range of 700 to 800 mm^3, donor tumors were subsequently transplanted into secondary recipient mice for a study expansion. […] PF-07104091 (lot 016), PF-07220060 (lot 019) and PD-0332991 (lot GR08498) were administered (PO.) BID (7 hr apart). All mice received treatment continuously until Day 41. TGI was assessed on Day 41 post first dose.

CAL12T = experiment: Combinatorial activity in LUAD cell line CAL12T; type: cell-based; conditions: Homo sapiens, CAL-12T, WT, single agent, read-out: (nM) s.a.
Method: as §1

H1792 = experiment: Combinatorial activity in LUAD cell line H1792; type: cell-based; conditions: Homo sapiens, NCI-H1792; H1792, KRAS G12C; single agent; read-out: (nM) s.a.
Method: as §1

SW1573 = experiment: Combinatorial activity in LUAD cell line SW1573; type: cell-based; conditions: Homo sapiens; SW1573, KRAS G12C; single agent; read-out: (nM) s.a.
Method: as §1

H23 = experiment: Combinatorial activity in LUAD cell line H23; type: cell-based; conditions: Homo sapiens, NCI-H23; H23, KRAS G12C; single agent; read-out: (nM) s.a.
Method: as §1

H1373 = experiment: Combinatorial activity in LUAD cell line H1373; type: cell-based; conditions: Homo sapiens, NCI-H1373; H1373, KRAS G12C; single agent; read-out: (nM) s.a.
Method: as §1

HCC44 (RB-) = experiment: Combinatorial activity in LUAD cell line HCC44; type: cell-based; conditions: Homo sapiens, KRAS G12C, single agent, read-out: (nM) s.a.
Method: as §1

H2030 = experiment: Combinatorial activity in LUAD cell line H2030; type: cell-based; conditions: Homo sapiens, NCI-H2030; H2030, KRAS G12C; single agent; read-out: (nM) s.a.
Method: as §1

H358 = experiment: Combinatorial activity in LUAD cell line H358; type: cell-based; conditions: Homo sapiens, NCI-H358; H358, KRAS G12C; single agent; read-out: (nM) s.a.
Method: as §1

IC50 (HCC2935) | IC50 (CAL12T) | IC50 (H1792) | IC50 (SW1573) | IC50 (H23) | IC50 (H1373) | IC50 (HCC44 (RB-)) | IC50 (H2030) | IC50 (H358) | Structure (SMILES) | IC50 (NCI-2291) | TGI % (T47D breast cancer model)
280 nM | 220 nM |  |  |  |  |  |  |  | COCc1cc(C(=O)Nc2cc([C@H]3CC[C@@H](OC(=O)NC(C)C)C3)[nH]n2)n(C)n1 [PF-07104091, (1R,3S)-3-[3-({[3-(methoxymethyl)-1-methyl-1H-pyrazol-5-yl]carbonyl}amino)-1H-pyrazol-5-yl]cyclopentyl propan-2-ylcarbamate] | ~1200 nM | 82%
141 nM | 210 nM | 210 nM | > 1000 nM | 285 nM | 470 nM | > 1000 nM | 950 nM | 120 nM | CC(C)n1c(C(C)(C)O)nc2c(F)cc(-c3nc(N[C@@H]4CCOC[C@H]4O)ncc3Cl)cc21 [PF-07220060, 1,5-anhydro-3-({5-chloro-4-[4-fluoro-2-(2-hydroxypropan-2-yl)-1-(propan-2-yl)-1H-benzimidazol-6-yl]pyrimidin-2-yl}amino)-2,3-dideoxy-D-threo-pentitol] | 138 nM | 73%
